Reference: ChEMBL document CHEMBL3779847, “Altered activity profile of a tertiary silanol analog of multi-targeting nuclear receptor modulator T0901317” (Bioorg Med Chem Lett, 2016)

What was measured:
[1] = Octanol-water partition coefficient, log P of the compound by HPLC method; assay type: physicochemical
[2] = molecular target: T1, Oxysterols receptor LXR-alpha (Homo sapiens, UniProt Q13133); experiment: Agonist activity at human LXRalpha transfected in HEK293 cells after 24 hrs by luciferase reporter gene assay; assay type: cell-based
T1 sequence (Q13133 whole entry): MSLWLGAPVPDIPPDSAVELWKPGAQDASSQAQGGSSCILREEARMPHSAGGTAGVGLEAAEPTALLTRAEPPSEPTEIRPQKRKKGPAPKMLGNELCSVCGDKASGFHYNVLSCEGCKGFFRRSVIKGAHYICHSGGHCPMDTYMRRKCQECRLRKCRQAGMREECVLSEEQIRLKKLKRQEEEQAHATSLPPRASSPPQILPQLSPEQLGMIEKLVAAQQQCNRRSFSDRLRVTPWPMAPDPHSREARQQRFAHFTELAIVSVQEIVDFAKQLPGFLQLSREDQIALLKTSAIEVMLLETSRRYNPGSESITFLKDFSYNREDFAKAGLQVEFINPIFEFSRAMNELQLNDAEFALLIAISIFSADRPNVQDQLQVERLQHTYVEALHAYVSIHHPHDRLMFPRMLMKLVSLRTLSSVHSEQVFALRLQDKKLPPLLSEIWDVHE

[3] = molecular target: T2, Oxysterols receptor LXR-beta (Homo sapiens, UniProt P55055); experiment: Agonist activity at human LXRbeta transfected in HEK293 cells after 24 hrs by luciferase reporter gene assay; assay type: cell-based
T2 sequence (P55055 whole entry): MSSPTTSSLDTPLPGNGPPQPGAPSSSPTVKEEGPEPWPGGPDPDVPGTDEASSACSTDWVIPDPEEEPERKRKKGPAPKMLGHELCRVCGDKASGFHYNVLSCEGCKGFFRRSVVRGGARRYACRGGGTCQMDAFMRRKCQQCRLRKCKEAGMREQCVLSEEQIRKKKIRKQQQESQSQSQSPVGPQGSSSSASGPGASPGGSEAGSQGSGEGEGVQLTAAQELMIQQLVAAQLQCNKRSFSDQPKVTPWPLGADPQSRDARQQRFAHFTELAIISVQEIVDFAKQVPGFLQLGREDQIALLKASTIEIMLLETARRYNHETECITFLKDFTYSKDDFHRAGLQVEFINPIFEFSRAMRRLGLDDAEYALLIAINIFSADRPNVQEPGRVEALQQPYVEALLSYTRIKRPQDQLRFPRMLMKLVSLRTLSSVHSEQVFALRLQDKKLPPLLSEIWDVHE

Bile acid receptor [4] = molecular target: T3, Bile acid receptor (Homo sapiens, UniProt Q96RI1); experiment: Agonist activity at human FXR transfected in HEK293 cells after 24 hrs by luciferase reporter gene assay; assay type: cell-based
T3 sequence (Q96RI1 whole entry): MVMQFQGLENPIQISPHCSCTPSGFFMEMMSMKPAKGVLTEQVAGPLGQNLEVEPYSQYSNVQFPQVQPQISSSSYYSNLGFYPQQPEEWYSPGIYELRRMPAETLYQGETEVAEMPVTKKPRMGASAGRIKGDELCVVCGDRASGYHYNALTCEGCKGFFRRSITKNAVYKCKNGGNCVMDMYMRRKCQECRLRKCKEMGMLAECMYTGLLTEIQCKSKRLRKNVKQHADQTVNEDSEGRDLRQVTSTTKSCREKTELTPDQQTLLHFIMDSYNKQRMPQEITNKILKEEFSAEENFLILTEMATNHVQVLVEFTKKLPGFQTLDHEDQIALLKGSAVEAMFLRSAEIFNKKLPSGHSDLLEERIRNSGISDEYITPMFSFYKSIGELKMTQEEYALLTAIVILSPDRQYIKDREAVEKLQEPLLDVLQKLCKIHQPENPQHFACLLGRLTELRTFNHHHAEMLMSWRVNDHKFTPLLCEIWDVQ

[5] = molecular target: T4, Nuclear receptor subfamily 1 group I member 2 (Homo sapiens, UniProt O75469); experiment: Agonist activity at human PXR transfected in HEK293 cells after 24 hrs by luciferase reporter gene assay; assay type: cell-based
T4 sequence (O75469 whole entry): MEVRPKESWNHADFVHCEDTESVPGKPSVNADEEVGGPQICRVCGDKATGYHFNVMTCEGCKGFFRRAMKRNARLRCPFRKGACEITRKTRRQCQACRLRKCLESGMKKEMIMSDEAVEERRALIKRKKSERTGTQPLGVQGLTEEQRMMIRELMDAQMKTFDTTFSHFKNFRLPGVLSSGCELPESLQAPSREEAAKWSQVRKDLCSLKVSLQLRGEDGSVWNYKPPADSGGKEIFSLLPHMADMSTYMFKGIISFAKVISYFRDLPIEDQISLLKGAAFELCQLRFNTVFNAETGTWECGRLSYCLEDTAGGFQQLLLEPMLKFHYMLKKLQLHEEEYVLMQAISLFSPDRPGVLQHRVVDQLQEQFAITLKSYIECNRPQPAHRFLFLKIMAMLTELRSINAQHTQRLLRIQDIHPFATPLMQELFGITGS

[6] = molecular target: T5, Nuclear receptor ROR-alpha (Homo sapiens, UniProt P35398); experiment: Inverse agonist activity at human RORalpha transfected in HEK293 cells after 24 hrs by beta galactosidase luciferase reporter gene assay; assay type: cell-based
T5 sequence (P35398 whole entry): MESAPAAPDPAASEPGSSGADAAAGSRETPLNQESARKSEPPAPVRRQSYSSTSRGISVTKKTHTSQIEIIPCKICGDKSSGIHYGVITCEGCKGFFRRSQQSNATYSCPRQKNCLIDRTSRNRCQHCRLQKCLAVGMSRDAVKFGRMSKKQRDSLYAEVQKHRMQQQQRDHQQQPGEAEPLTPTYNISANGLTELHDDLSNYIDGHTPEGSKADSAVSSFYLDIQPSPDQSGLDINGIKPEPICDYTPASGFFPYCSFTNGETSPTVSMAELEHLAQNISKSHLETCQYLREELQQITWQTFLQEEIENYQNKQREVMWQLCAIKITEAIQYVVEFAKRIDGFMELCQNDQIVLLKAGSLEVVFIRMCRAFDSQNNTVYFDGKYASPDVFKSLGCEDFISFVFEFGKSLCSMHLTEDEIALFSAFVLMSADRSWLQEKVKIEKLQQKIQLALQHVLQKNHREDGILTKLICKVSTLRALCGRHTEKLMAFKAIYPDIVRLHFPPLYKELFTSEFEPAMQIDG

[7] = molecular target: T6, Nuclear receptor ROR-beta (Homo sapiens, UniProt Q92753); experiment: Inverse agonist activity at human RORbeta transfected in HEK293 cells after 24 hrs by beta galactosidase luciferase reporter gene assay; assay type: cell-based
T6 sequence (Q92753 whole entry): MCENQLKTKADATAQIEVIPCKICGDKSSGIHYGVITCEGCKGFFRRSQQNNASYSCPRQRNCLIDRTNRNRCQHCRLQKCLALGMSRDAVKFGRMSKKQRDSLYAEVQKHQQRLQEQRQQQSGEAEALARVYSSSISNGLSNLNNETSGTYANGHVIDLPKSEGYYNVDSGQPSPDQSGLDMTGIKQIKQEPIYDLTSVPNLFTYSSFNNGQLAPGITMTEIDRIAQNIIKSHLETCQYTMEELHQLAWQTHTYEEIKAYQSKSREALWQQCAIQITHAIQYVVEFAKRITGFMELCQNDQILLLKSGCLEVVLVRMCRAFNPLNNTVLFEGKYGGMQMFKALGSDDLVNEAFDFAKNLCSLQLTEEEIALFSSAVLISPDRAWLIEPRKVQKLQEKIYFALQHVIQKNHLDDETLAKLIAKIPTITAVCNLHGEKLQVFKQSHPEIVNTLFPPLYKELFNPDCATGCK

[8] = molecular target: T7, Nuclear receptor ROR-gamma (Homo sapiens, UniProt P51449); experiment: Inverse agonist activity at human RORgamma transfected in HEK293 cells after 24 hrs by beta galactosidase luciferase reporter gene assay; assay type: cell-based
T7 sequence (P51449 whole entry): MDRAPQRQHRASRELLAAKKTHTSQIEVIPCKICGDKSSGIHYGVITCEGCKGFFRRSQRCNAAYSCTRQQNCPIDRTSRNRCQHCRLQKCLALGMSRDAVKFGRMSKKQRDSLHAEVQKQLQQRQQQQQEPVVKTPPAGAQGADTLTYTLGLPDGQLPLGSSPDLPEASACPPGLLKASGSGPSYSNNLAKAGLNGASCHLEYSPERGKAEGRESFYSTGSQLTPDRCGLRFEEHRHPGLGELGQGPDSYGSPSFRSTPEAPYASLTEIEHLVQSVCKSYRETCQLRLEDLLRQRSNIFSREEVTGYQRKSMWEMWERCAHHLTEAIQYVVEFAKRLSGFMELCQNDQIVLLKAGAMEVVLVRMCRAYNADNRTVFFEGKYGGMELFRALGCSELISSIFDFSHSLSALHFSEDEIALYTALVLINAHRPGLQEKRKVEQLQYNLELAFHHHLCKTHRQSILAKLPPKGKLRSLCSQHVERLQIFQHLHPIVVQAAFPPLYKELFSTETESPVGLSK

Bile acid receptor [9] = molecular target: T3, Bile acid receptor; experiment: Partial agonist activity at human FXR transfected in HEK293 cells after 24 hrs by luciferase reporter gene assay; assay type: cell-based
[10] = molecular target: T8, Bile acid receptor (Homo sapiens) (UniProt Q96RI1); experiment: Partial agonist activity at human FXR transfected in HEK293 cells after 24 hrs by luciferase reporter gene assay relative to T0901317; assay type: cell-based
T8 sequence (whole entry): T3 sequence (Q96RI1 whole entry)

PXR (NR1I2) = molecular target: T9, PXR (NR1I2) (Homo sapiens, UniProt O75469); experiment: Agonist activity at human PXR transfected in HEK293 cells after 24 hrs by luciferase reporter gene assay relative to T0901317; assay type: cell-based; conditions: HEK293 cells transfected with human PXR, read-out: Efficacy
T9 sequence (O75469 whole entry): T4 sequence (O75469 whole entry)

| logP [1] | EC50 [2] | EC50 [3] | EC50 (Bile acid receptor [4]) | EC50 ([5]; hek293) | IC50 ([6]; hek293) | IC50 ([7]; hek293) | IC50 ([8]; hek293) | EC50 ([5]; read-out: EC50) [µM] | IC50 ([6]; read-out: IC50) [µM] | IC50 ([7]; read-out: IC50) [µM] | IC50 ([8]; read-out: IC50) [µM] | EC50 (Bile acid receptor [9]) [µM] | Efficacy [10] [%] | Emax at 24 h (PXR (NR1I2)) [%] | Structure (SMILES) |
| --- | --- | --- | --- | --- | --- | --- | --- | --- | --- | --- | --- | --- | --- | --- | --- |
| 3.7 | Not Active | Not Active | Not Active | Not Active | Not Active | Not Active | Not Active |  |  |  |  |  |  |  | CC(C)(O)c1ccc(N(CC(F)(F)F)S(=O)(=O)c2ccccc2)cc1 |
| 4.23 | Not Active | Not Active |  |  |  |  |  | 0.88 | 53 | 60 | 43 | 11 | 23 | 61 | C[Si](C)(O)c1ccc(N(CC(F)(F)F)S(=O)(=O)c2ccccc2)cc1 |
|  |  |  |  |  |  |  |  |  |  |  |  |  |  | 75 | CO[C@H]1/C=C/O[C@@]2(C)Oc3c(C)c(O)c4c(O)c(c(/C=N/N5CCN(C)CC5)c(O)c4c3C2=O)NC(=O)/C(C)=C\C=C\[C@H](C)[C@H](O)[C@@H](C)[C@@H](O)[C@@H](C)[C@H](OC(C)=O)[C@@H]1C [RIFAMPIN] |
| 5.38 |  |  |  |  | Not Active | Not Active |  |  |  |  |  |  |  |  | O=S(=O)(c1ccccc1)N(CC(F)(F)F)c1ccc(C(O)(C(F)(F)F)C(F)(F)F)cc1 [T091317] |
